From patent US20240174744A1, “METHODS OF TREATMENT USING PROTEIN BINDERS TO IRHOM2 EPITOPES” (SCIRHOM GMBH, priority 2021, published 2024)

System: PMA-induced release of IL-6R from PBMCs from healthy donors
Experiment: ELISA-based IL-6R release assay, PBMCs from healthy donors
Assay type: cell-based
Settings: Homo sapiens, PBMC; recombinant murine antibodies 1 μg/ml; Batimastat 10 μM; PMA 25 ng/ml, 6 hours
Experimental: In the following study, ELISA-based IL-6R release assays were performed to analyze the inhibitory effects of the antibodies of the present disclosure on PMA-induced release of endogenous IL-6R from primary human material obtained from healthy donors using peripheral blood mononuclear cells (PBMCs).
In brief, on day 1, Nunc black MaxiSorp® 96-well plates (Thermo Fisher Scientific, USA) were coated overnight with 100 μl per well of mouse anti-human IL-6R capture antibody (provided as part of the DuoSet ELISA kit) at 4 μg/ml TBS at 4° C. On day 2, the capture antibody solution was removed and MaxiSorp® plates were blocked with 300 μl per well of TBS, 1% BSA at room temperature for 3 hours. […] Using an infinite M1000 (Tecan Group, Switzerland) microplate reader, the fluorescence of each well was collected at an excitation wavelength of 435 nm and an emission wavelength of 555 nm.

## CNC(=O)[C@H](Cc1ccccc1)NC(=O)[C@H](CC(C)C)[C@H](CSc1cccs1)C(=O)NO [Batimastat]
  inhibition at 10 µM: 114%
